Drawing on US12637440B2, “Amide derivative useful as diacylglycerol acyltransferase 2 inhibitor, and use thereof” (LG CHEM, LTD., priority 2019, dated 2026), this text covers IC50 for 23 compounds.

A value given as a limit tells only on which side of the number the result lay.

Usually IC50 stands for the concentration at which inhibition is half-maximal.

The test addresses T1, Recombinant human DGAT2 protein (Homo sapiens, UniProt Q96PD7).
T1 construct: FLAG (DYKDDDDK); (N); made in house; host or cells: Sf-21 insect cells (BacPAK baculovirus system); used as a membrane preparation
T1 sequence (Q96PD7 1-388): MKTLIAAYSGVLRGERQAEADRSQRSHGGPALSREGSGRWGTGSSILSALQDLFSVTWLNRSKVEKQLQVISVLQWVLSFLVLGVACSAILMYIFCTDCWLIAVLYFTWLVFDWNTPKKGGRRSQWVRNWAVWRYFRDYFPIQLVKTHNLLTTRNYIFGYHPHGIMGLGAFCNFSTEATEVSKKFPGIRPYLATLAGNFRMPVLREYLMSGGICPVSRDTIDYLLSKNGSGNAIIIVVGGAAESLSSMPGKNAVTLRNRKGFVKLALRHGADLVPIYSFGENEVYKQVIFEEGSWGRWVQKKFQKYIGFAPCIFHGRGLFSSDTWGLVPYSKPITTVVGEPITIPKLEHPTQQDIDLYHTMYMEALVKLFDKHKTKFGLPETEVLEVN
Description: Measurement of inhibitory effect against DGAT2 enzyme activity (SPA, Phospholipid FlashPlate, [14C]-TG production). It is filed as biochemical. The following applies: concentration inhibiting [14C]-labeled triacyl glycerol (TG) production by 50%; 2 μg DGAT2-membrane protein from Sf-21 cells, 37° C. As to the method:
Experimental Example: Measurement of Inhibitory Effect Against DGAT2 Enzyme Activity
In order to prepare the pBacPAK9-DGAT2, which is DGAT2 expression vector, the human DGAT2 gene amplified by polymerase chain reaction (PCR) was cloned into the EcoR1 and Xho1 sites of the pBacPAK9 (clonctech) vector. The nucleotide sequence of the primers used in PCR was the forward primer 5′ […] and the reverse primer 5′ […]. The composition of the reaction solution was to contain 50 ng of cDNA clone (OriGene), 200 μM of dATP, dCTP, dTTP, dGTP, 200 nM of each primer, 1 unit of Tag DNA Polymerase (Toyobo), 1×PCR buffer, and the final volume was adjusted to 20 μl. The reaction conditions were denatured at 95° C. for 5 minutes, followed by 30 times of 94° C. for 20 seconds, 60° C. for 20 seconds, and 72° C. for 90 seconds, followed by further reaction at 72° C. for 7 minutes.
Recombinant human DGAT2 protein was expressed in Sf-21 cells, which are insect cells, by using the BacPack baculovirus expression system (Clontech). The brief manufacturing process is as follows. First, the pBacPAK9-DGAT2 expression vector was transfected with BacPAK6 virus DNA (Bsu36I digest) into sf21 cells using Bacfectin to prepare a recombinant DGAT2 expressing baculovirus. The thus prepared baculovirus was infected with Sf-21 cells at 10 MOI (multiplicity of infection), and after 72 hours, infected insect cells were collected and membrane proteins were isolated. For membrane protein separation, the cell pellet was dissolved in a sucrose solution containing 250 mM sucrose, 10 mM Tris (pH 7.4), and 1 mM ethylenediamine-tetraacetic acid (EDTA), and then homogenized by using a dounce homogenizer, and the supernatant was taken by centrifuging at 600×g for 15 minutes, and centrifuged at 100,000×g for 1 hour to discard the supernatant, and the remaining pellet was resuspended in 20 mM HEPES buffer (pH 7.4). The prepared DGAT2 overexpressing membrane protein was dispensed in 100 μl and stored at −80° C. until use. Protein concentration was quantified by using the BCA Protein Assay Kit (Thermo Scientific).
In vitro DGAT2 analysis was performed using a Phospholipid Flash Plate (PerkinElmer) based on the principle of SPA (Scintillation Proximity Assay). First, DGAT2 inhibition compounds serially diluted 5 times from 3 nM to 10 μM (final concentration, 1% DMSO) were mixed in a buffer solution containing 2 μg DGAT2-membrane protein and 20 mM HEPES, 20 mM MgCl2, 1 mg/mL BSA, 50 μM 1,2 sn-oleoyl glycerol (Sigma), put in a 96-well flash plate (FlashPlate) and reacted at 37° C. for 20 minutes, and then 1 μM [14C] ole oil CoA (PerkinElmer, NEC651050UC) was added to be a final volume of 100 μL and further reacted at 37° C. for 15 minutes. After the enzymatic reaction was completed, 100 μL of isopropanol was added, the plate was sealed with a film, and the plate was shaken slowly in a plate shaker. The next day, the amplified scintillation signal (cpm) in Topcounter (Packard) was measured to measure the degree of production of [14C]-labeled triacyl glycerol (TG) as a reaction product. The measured value when the compound was not treated was used as a positive control, and the measured value of the compound treated group was calculated as a relative % to measure the inhibition effect of the compound on TG production.

Regarding `CC(C)(Cc1ccc(CC(=O)Nc2cncc(N3CCC[C@@H](Oc4ccccc4OC4CCC4)C3)n2)cc1)C(=O)O` [Example 96, (R)-3-(4-(2-((6-(3-(2-cyclobutoxyphenoxy)piperidin-1-yl)pyrazin-2-yl)amino)-2-oxoethyl)phenyl)-2,2-dimethylpropanoic acid], the IC50 turned out to be 200 nM.
In the case of `CCOc1cccnc1O[C@@H]1CCCN(c2ccnc(NC(=O)Cc3ccc(CC(C)(C)C(=O)O)cc3)n2)C1` [Example 114, (R)-3-(4-(2-((4-(3-((3-ethoxypyridin-2-yl)oxy)piperidin-1-yl)pyrimidin-2-yl)amino)-2-oxoethyl)phenyl)-2,2-dimethylpropanoic acid], the 50% inhibitory concentration (IC50) came to 140 nM.
On to `CCOc1ccccc1O[C@@H]1CCCN(c2cncc(NC(=O)c3ccc(OC)cc3)n2)C1` [Example 9, (R)—N-(6-(3-(2-ethoxyphenoxy)piperidin-1-yl)pyrazin-2-yl)-4-methoxybenzamide], for which the IC50 turned out to be 90 nM.
As for `CCOc1cccnc1O[C@@H]1CCCN(c2cncc(NC(=O)Cc3ccc(CC(C)(C)C(=O)O)cc3)n2)C1` [Example 116, (R)-3-(4-(2-((6-(3-((3-ethoxypyridin-2-yl)oxy)piperidin-1-yl)pyrazin-2-yl)amino)-2-oxoethyl)phenyl)-2,2-dimethylpropanoic acid], the IC50 amounted to 38 nM.
In the case of `CCOc1ccccc1O[C@@H]1CCCN(c2cncc(NC(=O)c3ccccc3)n2)C1` [Example 6, (R)—N-(6-(3-(2-ethoxyphenoxy)piperidin-1-yl)pyrazin-2-yl)benzamide] it was 53 nM.
In the case of `CCOc1ccccc1O[C@@H]1CCCN(c2cncc(NC(=O)Nc3cc(C(F)(F)F)cc(C(F)(F)F)c3)n2)C1` [Example 1, (R)-1-(3,5-bis(trifluoromethyl)phenyl)-3-(6-(3-(2-ethoxyphenoxy)piperidin-1-yl)pyrazin-2-yl)urea] it was 45 nM; in that of `CCOc1ccccc1O[C@@H]1CCCN(c2cc(C(F)(F)F)nc(NC(=O)Cc3ccc(CC(C)(C)C(=O)O)cc3)n2)C1` [Example 72], 1800 nM; in that of `CCOc1ccccc1O[C@@H]1CCCN(c2cncc(NC(=O)CCc3ccc(C(C)(C)C(=O)O)cc3)n2)C1` [Example 51, (R)-2-(4-(3-((6-(3-(2-ethoxyphenoxy)piperidin-1-yl)pyrazin-2-yl)amino)-3-oxopropyl)phenyl)-2-methylpropanoic acid], 33 nM.
Consider `CCOc1ccccc1O[C@@H]1CCCN(c2cncc(NC(=O)c3cc(F)c(N4CCC(C(=O)O)CC4)c(F)c3)n2)C1` [Example 57], for which the IC50 was determined as 5300 nM.
With `CCOc1ccccc1O[C@@H]1CCCN(c2cncc(NC(=O)C(C)(C)c3ccc(N4CCC(C(=O)O)CC4)cc3)n2)C1` [Example 86, (R)-1-(4-(1-((6-(3-(2-ethoxyphenoxy)piperidin-1-yl)pyrazin-2-yl)amino)-2-methyl-1-oxopropan-2-yl)phenyl)piperidine-4-carboxylic acid], the IC50 was > 10000 nM.
As for `CCOc1ccccc1O[C@@H]1CCCN(c2cncc(NC(=O)c3ccc(C(C)(C)C(=O)O)cc3)n2)C1` [Example 13, (R)-2-(4-((6-(3-(2-ethoxyphenoxy)piperidin-1-yl)pyrazin-2-yl)carbamoyl)phenyl)-2-methylpropanoic acid], the IC50 was found to be 9100 nM.
In the case of `CCOc1ccccc1O[C@@H]1CCCN(c2cncc(NC(=O)C(C)(C)Cc3ccc(C(C)(C)C(=O)O)cc3)n2)C1` [Example 111, (R)-2-(4-(3-((6-(3-(2-ethoxyphenoxy)piperidin-1-yl)pyrazin-2-yl)amino)-2,2-dimethyl-3-oxopropyl)phenyl)-2-methylpropanoic acid] it was 690 nM.
Take `CCOc1ccccc1O[C@@H]1CCCN(c2cncc(NC(=O)c3ccc(CC(=O)O)cc3)n2)C1` [Example 12, (R)-2-(4-((6-(3-(2-ethoxyphenoxy)piperidin-1-yl)pyrazin-2-yl)carbamoyl)phenyl)acetic acid]: the IC50 was 4000 nM.
Turning to `CCOc1ccccc1O[C@@H]1CCCN(c2cncc(NC(=O)C3CCN(c4ccc(C(=O)O)cn4)C3)n2)C1` (stereo partly drawn) [Example 87, 6-(3-((6-((R)-3-(2-ethoxyphenoxy)piperidin-1-yl)pyrazin-2-yl)carbamoyl)pyrrolidin-1-yl)nicotinic acid], the concentration for half-maximal inhibition (IC50) was 160 nM.
To `CCOc1ccccc1O[C@@H]1CCCN(c2cncc(NC(=O)CCc3cccc(CC(C)(C)C(=O)O)c3)n2)C1` [Example 127, (R)-3-(3-(3-((6-(3-(2-ethoxyphenoxy)piperidin-1-yl)pyrazin-2-yl)amino)-3-oxopropyl)phenyl)-2,2-dimethylpropanoic acid] belongs 83 nM; to `CCOc1ccccc1O[C@@H]1CCCN(c2cncc(NC(=O)CCc3ccc(C(=O)O)c(Cl)c3)n2)C1` [Example 47, (R)-2-chloro-4-(3-((6-(3-(2-ethoxyphenoxy)piperidin-1-yl)pyrazin-2-yl)amino)-3-oxopropyl)benzoic acid], 310 nM.
Take `CCOc1ccccc1O[C@@H]1CCCN(c2cncc(NC(=O)CCc3cccc(C(=O)O)c3)n2)C1` [Example 48, (R)-3-(3-((6-(3-(2-ethoxyphenoxy)piperidin-1-yl)pyrazin-2-yl)amino)-3-oxopropyl)benzoic acid]: the IC50 was found to be 710 nM.
As for `COc1ccccc1O[C@@H]1CCCN(c2cncc(NC(=O)CCc3ccc(C(C)(C)C(=O)O)cc3)n2)C1` [Example 91, (R)-2-(4-(3-((6-(3-(2-methoxyphenoxy)piperidin-1-yl)pyrazin-2-yl)amino)-3-oxopropyl)phenyl)-2-methylpropanoic acid], the IC50 turned out to be 370 nM.
Regarding `CCOc1ccccc1O[C@@H]1CCCN(c2cncc(NC(=O)C3CCN(c4ncc(CC)cn4)CC3)n2)C1` [Example 18, (R)—N-(6-(3-(2-ethoxyphenoxy)piperidin-1-yl)pyrazin-2-yl)-1-(5-ethylpyrimidin-2-yl)piperidine-4-carboxamide], the IC50 is 8 nM.
In the case of `CCOc1ccccc1O[C@@H]1CCCN(c2nccc(NC(=O)Cc3ccc(OC(C)(C)C(=O)O)cc3)n2)C1` [Example 106, (R)-2-(4-(2-((2-(3-(2-ethoxyphenoxy)piperidin-1-yl)pyrimidin-4-yl)amino)-2-oxoethyl)phenoxy)-2-methylpropanoic acid] it was 730 nM; in that of `CCOc1ccccc1O[C@@H]1CCCN(c2cccc(NC(=O)Cc3ccc(CC(C)(C)C(=O)O)cc3)n2)C1` [Example 71], 250 nM.
In the case of `CCOc1ccccc1O[C@@H]1CCCN(c2ccnc(NC(=O)C(C)(C)c3ccc(CC(C)(C)C(=O)O)cc3)n2)C1` [Example 77, (R)-3-(4-(1-((4-(3-(2-ethoxyphenoxy)piperidin-1-yl)pyrimidin-2-yl)amino)-2-methyl-1-oxopropan-2-yl)phenyl)-2,2-dimethylpropanoic acid] it was 410 nM; in that of `CCOc1ccccc1O[C@@H]1CCCN(c2cncc(NC(=O)COc3ccc(CC(=O)O)cc3)n2)C1` [Example 100, (R)-2-(4-(2-((6-(3-(2-ethoxyphenoxy)piperidin-1-yl)pyrazin-2-yl)amino)-2-oxoethoxy)phenyl)acetic acid], 590 nM.
